Reference: patent publication US20110144056A1, “PYRAZOLE DERIVATIVES USEFUL AS INHIBITORS OF FAAH” (priority 2008, published 2011)
pIC50: −log10 of the molar value.

Tests used:
FAAH [1] = target: T1, FAAH (Rattus norvegicus, UniProt P97612); assay: FAAH whole cell assay, CHO cells expressing rat FAAH; type: cell-based
T1 construct: expressed in transfected cells; cDNA by RT-PCR from brain cDNA (BD Biosciences)
T1 sequence (P97612 1-579): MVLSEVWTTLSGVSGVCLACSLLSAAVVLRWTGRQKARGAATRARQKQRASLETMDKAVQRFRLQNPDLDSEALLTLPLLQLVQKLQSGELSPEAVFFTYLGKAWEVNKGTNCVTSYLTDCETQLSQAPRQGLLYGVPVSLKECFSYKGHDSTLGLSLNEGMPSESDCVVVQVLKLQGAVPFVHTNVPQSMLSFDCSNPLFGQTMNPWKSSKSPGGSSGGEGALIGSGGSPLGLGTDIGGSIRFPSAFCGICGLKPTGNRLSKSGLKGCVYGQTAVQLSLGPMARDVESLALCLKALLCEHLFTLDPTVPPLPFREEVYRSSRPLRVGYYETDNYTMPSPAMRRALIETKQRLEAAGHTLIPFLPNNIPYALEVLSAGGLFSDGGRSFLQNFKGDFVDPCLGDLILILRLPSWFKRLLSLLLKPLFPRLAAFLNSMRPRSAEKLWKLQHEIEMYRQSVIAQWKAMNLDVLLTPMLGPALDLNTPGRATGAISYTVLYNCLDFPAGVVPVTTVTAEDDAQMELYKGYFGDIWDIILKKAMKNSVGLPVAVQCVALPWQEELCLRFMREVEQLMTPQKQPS
Text: (§1) Murine (accession number NM_010173) and Rat FAAH (accession number NM_024132) was amplified by reverse transcriptase polymerase chain reaction (RT-PCR) from brain cDNA (BD Biosciences, San Jose, Calif.) using primers 1 and 2 or primers 1 and 3 respectively (see Table). The resulting PCR product was ligated into pCR4TOPO and DNA sequence confirmed. The full length murine FAAH was subcloned into the mammalian expression vector, pcDEFneo using either EcoRI (murine) or KpnI and EcoRI (rat) restriction sites. Chinese hamster ovary cells (CHO) were transfected following manufacturers protocol (AMAXA). Forty eight hours post transfection, cells were trypsinized and transferred to 96 well plates in Iscove's DMEM media supplemented with 2 mM Glutamine, 10% fetal calf serum, 1 mg/ml geneticin and HT Supplement (0.1 mM sodium hypoxanthine, 0.016 mM thymidine) in order to isolate single clones. Following selection in geneticin, individual clones were selected and FAAH activity was assessed using a whole cell fluorescent anandamide assay, modified from Ramarao et al (2005). Following removal of tissue culture media cells were dislodged following addition of Cellstripper (Mediatech, Inc. Manassas, Va.) and transferred to 96 well black clear bottom assay plate, centrifuged at 1,000 rpm for 3 mins and media removed and replaced with assay buffer (50 mM Tris pH8.0, 1 mM EDTA, 0.1% fatty acid free BSA). The reaction was initiated by addition of fluorescent substrate, AMC Arachidonoyl Amide (Cayman Chemical, Ann Arbor, Mich.) to 1 μM and reaction allowed to proceed for 2 hours at room temperature. Release of fluorescence was monitored in a CytoFluor Multiplate Reader. Cells expressing the highest amount of FAAH activity were selected for study with FAAH inhibitors.
(§2) Assays are performed on either cell lysate or microsome fractions prepared as described or in whole cell format employing either the fluorescent substrate AAMCA (Cayman chemical, Ann Arbor, Mich.,) or ^3H-anandmaide ([ETHANOLAMINE-1-3H]American Radiolabeled Chemicals; 1 mCi/ml). The cell lysate or microsome assay is performed in Costar black wall, clear bottom plates by adding FAAH_CHO (whole cell, cell lysate or microsome) in assay buffer (50 mM Phosphate, pH 8.0, 1 mM EDTA, 200 mM KCl, 0.2% glycerol, 0.1% fatty acid free BSA) to each well, followed by either DMSO or compound and allowed to incubate at 22-25° C. for fifteen minutes. AAMCA substrate was used to achieve a final concentration of 1 μM and reaction allowed to proceed at room temperature for 1-3 hours. Fluorescent release as a measure of FAAH activity was monitored by reading the plate in a CytoFluor Multiplate Reader ([…]). Whole cell assay is conducted with cells harvested after rinsing tissue culture flasks three times with Ca^++Mg^++ free PBS, incubating for 10 mm in Enzyme free dissociation media and centrifuging for 5 minutes at 1,000 rpm in table top centrifuge. Cells are resuspended in assay buffer at desired cell number in (4×10^4 cells/assay in 96-well format; 1×10^4 cells/assay in 384-well format) and assayed as described.

FAAH [2] = target: T2, FAAH (Homo sapiens, UniProt O00519); assay: FAAH enzyme assay, lysate of CHO cells expressing human FAAH; type: biochemical; conditions: CHO cell lysate, read-out: Human Lysate
T2 construct: The full length FAAH was subcloned into the mammalian expression vector, pcDEF.neo; expressed in transfected cells; cDNA from Origene
T2 sequence (O00519 1-579): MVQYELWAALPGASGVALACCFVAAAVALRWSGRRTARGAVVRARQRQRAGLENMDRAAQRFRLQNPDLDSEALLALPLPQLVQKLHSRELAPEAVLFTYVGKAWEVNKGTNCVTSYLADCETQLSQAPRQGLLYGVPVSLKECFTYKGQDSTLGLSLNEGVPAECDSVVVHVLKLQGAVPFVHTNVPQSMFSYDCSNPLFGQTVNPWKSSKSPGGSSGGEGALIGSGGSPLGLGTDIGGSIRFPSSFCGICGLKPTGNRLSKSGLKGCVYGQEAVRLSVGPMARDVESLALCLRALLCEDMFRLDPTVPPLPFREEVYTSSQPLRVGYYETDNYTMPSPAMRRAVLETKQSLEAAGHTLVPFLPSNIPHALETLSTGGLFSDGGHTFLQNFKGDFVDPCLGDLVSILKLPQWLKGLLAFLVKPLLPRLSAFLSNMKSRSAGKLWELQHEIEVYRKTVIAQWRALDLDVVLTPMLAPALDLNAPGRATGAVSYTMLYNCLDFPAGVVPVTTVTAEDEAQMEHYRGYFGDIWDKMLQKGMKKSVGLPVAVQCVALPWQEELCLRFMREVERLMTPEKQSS
Text: (§3) To assist in assay development stable cell lines for human, murine and rat full length FAAH were developed. Human FAAH cDNA (Accession No: NM_001441.1) was purchased from Origene (Rockville, Md.). The full length FAAH was subcloned into the mammalian expression vector, pcDEF.neo, using XbaI and […] restriction sites and used for stable cell line generation.
CHO cells expressing FAAH were used to prepare either crude cell lysate or microsome fractions. To harvest cells, tissue culture media was decanted, the monolayer washed three times with Ca^++Mg^++ free PBS and cells recovered after 15 min in enzyme free dissociation media (Millipore Corp, Billerica, Mass.). Cells were collected by centrifuging at 2000 rpm for 15 min. and the cell pellet re-suspended with 50 mM HEPES (pH 7.4) containing 1 mM EDTA and the protease inhibitors aprotinin (1 mg/ml) and leupeptin (100 μM). The suspension was sonicated at 4° C. and the cell lysate recovered after centrifuging at 12,000×g (14,600 rpm, SS34 rotor) for 20 min at 4° C. to form a crude pellet of cell debris, nuclei, peroxisomes, lysosomes, and mitochondria; the supernatant or cell lysate was used for FAAH enzyme assay. In some cases, microsomes fractions enriched in FAAH were prepared by centrifuging the cell lysate further at 27,000 rpm (100,000×g) in SW28 rotor for 50 minutes at 4° C. The pellet containing FAAH-enriched microsomes was re-suspend in 50 mM HEPES, (pH 7.4) 1 mM EDTA, and any remaining DNA sheared by passage of material through a 23 gauge needle and aliquots of enzyme were store at −80° C. prior to use.
(American Radiolabeled Chemicals; 1 mCi/ml) with FAAH (Life Sciences (1995), 56, 1999-2005 and Journal of Pharmacology and Experimented Therapeutics (1997), 283, 729-734), Analytical. Biochemistry (2003), 318, 270-5. In addition, routine assays were performed monitoring hydrolysis of arachidonyl-7-amino-4-methylcoumarin amide (AAMCA) by following increase in fluorescence upon release of 7-amino 4-methyl coumarin (λEX=355 nm, (λEM=460 nm). Analytical. Biochemistry (2005). 343, 143-51.
as §2
Alternatively, assays are performed using anandamide [ethanolamine 1-^3H] (specific activity of 10 Ci/mmol) diluted with cold anandamide to achieve a final assay concentration of 1 μM anandamide (˜50,000 cpm). Enzyme (CHO cell lysate, brain or liver homogenate) is incubated in assay buffer (50 mM Phosphate, pH 8.0, 1 mM EDTA, 200 mM KCl, 0.2% glycerol, 0.1% fatty acid free BSA) with inhibitor at 25° C. for 30 minutes. The reaction was terminated by addition of 2 volumes of chloroform:methanol (1:1) and mixed by vortexing. […]

FAAH [3] = target: T2, FAAH; assay: FAAH whole cell assay, CHO cells expressing human FAAH; type: cell-based; conditions: read-out: Human whole cell
Text: as §3, §1, §2

SMILES | pIC50 (FAAH [1]) | pIC50 (FAAH [2]) | pIC50 (FAAH [3])
CS(=O)(=O)c1ccc(-c2c(Sc3ccc(Cl)cc3)cnn2-c2ccc(F)cc2)cc1 [Ex 25, 4-[(4-Chlorophenyl)thio]-2-(4-fluorophenyl)-3-[4-(methylsulfonyl)phenyl]-1H-pyrazole] | 6.53 | 6.57 | 6.63
O=C(NCCCl)c1ccc(-c2nn(-c3ccccc3)cc2Sc2ccc(Cl)cc2)cc1 [Example 121, N-(2-Chloroethyl)-4-{4-[(4-chlorophenyl)thio]-1-phenyl-1H-pyrazol-3-yl}benzamide] | 7.28 | 7.10 | 6.91
CC(C)(O)c1cnc(-c2nn(-c3ccc(F)cn3)cc2Sc2ccc(Cl)cc2)cn1 [Example 229, 2-{5-[4-[(4-Chlorophenyl)thio]-1-(5-fluoropyridin-2-yl)-1H-pyrazol-3-yl}pyrazin-2-yl]propan-2-ol] | 7.74 | 7.59 | 7.18

The remaining lines, values ahead:

pIC50 (FAAH [1]) | pIC50 (FAAH [2]) | pIC50 (FAAH [3]) | SMILES
6.86 | 7.00 | 6.23 | [O-][n+]1cccc(-n2cc(Sc3ccc(Cl)cc3)c(-c3ccc(-c4ncon4)cc3)n2)c1 [Example 75]
6.80 | 6.92 | 6.40 | Clc1ccc(Sc2cn(-c3ccccc3)nc2-c2ccc(-c3c[nH]nn3)cc2)cc1 [Example 88, 4-(4-{4-[(4-Chlorophenyl)thio]-1-phenyl-1H-pyrazol-3-yl}phenyl)-1H-1,2,3-triazole]
